The text below walks through data of article PMC7151078, “A Novel NMDA Receptor Antagonist Protects against Cognitive Decline Presented by Senescent Mice” (Pharmaceutics, 2020).

The subject of assay [1] is SAMR1 and SAMP8 mice. Nature of the assay: Object location test (OLT). It is filed as in vivo, mouse. The note with it: both treated mice groups (SR1 and SP8), 5 mg/kg/day. The protocol:
Male SAMR1 and SAMP8 mice (n = 41) with 20-weeks-old were used to carry out cognitive and molecular analysis. The animals were randomly divided into four groups: SAMR1 control (SR1 Ct) group (n = 11), SAMP8 control (SP8 Ct) group (n = 8), SAMR1 treated with RL-208 (SR1 RL-208 (5 mg/Kg)) group (n = 10) and SAMP8 treated with RL-208 (SP8 RL-208 (5 mg/Kg)) group (n = 12). Animals had free access to food and water, under standard temperature conditions (22±2 °C) and 12h:12h light-dark cycles (300 lux/0 lux). RL-208, (3,4,8,9-tetramethyltetracyclo[4.4.0.0^3,9.0^4,8]dec-1-yl)-methylamine hydrochloride, (5 mg/kg/day) was administered through drinking water for four weeks before starting the cognitive test. RL-208 was administered up to euthanasia (Figure 1A). Water consumption was controlled each week for each cage and strain. Afterwards, RL-208 concentration was adjusted accordingly to reach the optimal dose for each cage. […] Trials were recorded using a camera mounted above the open field area, and the total exploration time was determined by scoring the amount of time (seconds) spent sniffing the object in the new location (TN) and the object in the old location (TO). In order to evaluate the cognitive performance, the DI was calculated, which is defined as (TN-TO)/(TN+TO).

The subject of assay [2] is SAMR1 and SAMP8 mice. In words: Novel object recognition test (NORT). It is filed as in vivo, mouse. The note with it: 5 mg/kg/day. Here is the method: Male SAMR1 and SAMP8 mice (n = 41) with 20-weeks-old were used to carry out cognitive and molecular analysis. The animals were randomly divided into four groups: SAMR1 control (SR1 Ct) group (n = 11), SAMP8 control (SP8 Ct) group (n = 8), SAMR1 treated with RL-208 (SR1 RL-208 (5 mg/Kg)) group (n = 10) and SAMP8 treated with RL-208 (SP8 RL-208 (5 mg/Kg)) group (n = 12). Animals had free access to food and water, under standard temperature conditions (22±2 °C) and 12h:12h light-dark cycles (300 lux/0 lux). RL-208, (3,4,8,9-tetramethyltetracyclo[4.4.0.0^3,9.0^4,8]dec-1-yl)-methylamine hydrochloride, (5 mg/kg/day) was administered through drinking water for four weeks before starting the cognitive test. RL-208 was administered up to euthanasia (Figure 1A). Water consumption was controlled each week for each cage and strain. Afterwards, RL-208 concentration was adjusted accordingly to reach the optimal dose for each cage. The novel object recognition test (NORT) allows evaluating short- and long-term recognition memory involving cortical areas and the hippocampus. The experimental apparatus used for this test was a 90º, two-arm, 25-cm-long, 20-cm-high, and a 5-cm-wide black maze of black polyvinyl chloride (Figure 1D). The walls could be removed for easy cleaning with 70% ethanol to eliminate olfactory cues, and light intensity in mid-field was 30 lux. The objects to be discriminated were made of plastic and chosen not to frighten mice and without any part likely to be bitten. Before performing the test, the mice were individually habituated to the apparatus for 10 min during 3 consecutive days. On day four the next day, the animals were allowed to explore freely a 10 min acquisition trial (First trial), during which they were placed in the maze in the presence of two identical novel objects (A+A’ or B+B’) at the end of each arm. The mouse was then removed from the apparatus and returned to its home cage. A 10 min retention trial (Second trial) was carried out two hours later. […] The time that mice explored the novel object (TN) and time that mice explored the old object (TO) were measured from the video recordings from each trial session Exploration of an object was defined as pointing the nose towards the object at a distance ≤2 cms and/or touching it with the nose. […] To avoid object preference biases objects A and B were counterbalanced so that one-half of the animals in each experimental group were first exposed to object A and then to object B, whereas the other half first saw object B and then object A. To evaluate the cognitive performance, the discrimination index (DI) was calculated, which is defined as (TN-TO)/(TN+TO).

As for `CC12CC3CC1(C)C1(C)CC3(CN)CC21C.Cl` [RL-208, (3,4,8,9-tetramethyltetracyclo [4.4.0.0^3,9.0^4,8]dec-1-yl)methylamine hydrochloride], in the assay with SAMR1 and SAMP8 mice [1], the “OLT spatial memory (DI)” value is “significant higher DI values”. The “NORT short-term recognition memory (DI)” value in the assay with SAMR1 and SAMP8 mice [2] (SP8 RL-208 vs SP8 Ct, 2 h retention) was “significant gain”. Further, the “NORT long-term recognition memory (DI)” value in the assay with SAMR1 and SAMP8 mice [2] (SP8 RL-208 vs SP8 Ct, 24 h retention) is listed as “significant gain”. In the assay with SAMR1 and SAMP8 mice [2] (between SR1 groups), the “NORT long-term DI” value is listed as “no significant changes” and the “NORT short-term DI” value was “no significant changes”.
